According to PubChem BioAssay (NCI):
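Five compound concentrations were applied to cells in 96-well plates for 48 hours; endpoints were derived by simple linear interpolation of the resulting dose-response curve. At the GI50, growth is halved. TGI is the concentration that stops growth completely.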

Assays:
Assay in all cases: DTP human tumour cell line panel, 48 h
MDA-MB-231 breast = test system: MDA-MB-231 breast
MOLT-4 leukemia = test system: MOLT-4 leukemia
SF-539 CNS = test system: SF-539 CNS
SK-OV-3 ovarian = test system: SK-OV-3 ovarian
RPMI-8226 leukemia = test system: RPMI-8226 leukemia
SNB-19 CNS = test system: SNB-19 CNS
DU-145 prostate = test system: DU-145 prostate
TK-10 renal = test system: TK-10 renal
PC-3 prostate = test system: PC-3 prostate
UACC-257 melanoma = test system: UACC-257 melanoma

SMILES | GI50 (MDA-MB-231 breast) [µM] | TGI (MDA-MB-231 breast) [µM] | GI50 (MOLT-4 leukemia) [µM] | TGI (MOLT-4 leukemia) [µM] | GI50 (SF-539 CNS) [µM] | TGI (SF-539 CNS) [µM] | GI50 (SK-OV-3 ovarian) [µM] | TGI (SK-OV-3 ovarian) [µM] | GI50 (RPMI-8226 leukemia) [µM] | TGI (RPMI-8226 leukemia) [µM] | GI50 (SNB-19 CNS) [µM] | TGI (SNB-19 CNS) [µM] | GI50 (DU-145 prostate) [µM] | TGI (DU-145 prostate) [µM] | GI50 (TK-10 renal) [µM] | TGI (TK-10 renal) [µM] | GI50 (PC-3 prostate) [µM] | TGI (PC-3 prostate) [µM] | GI50 (UACC-257 melanoma) [µM] | TGI (UACC-257 melanoma) [µM]
CCN1C[C@@H](C)n2c(c(O)c3c(=O)n(Cc4ccc(F)c(Cl)c4)nc(C(=O)NC)c32)C1=O | 2.64 | 7.36 | 4.18 | > 100 | 2.32 | 5.37 | 3.3 | 9.64 | 2.59 | 7.37 | 3.37 | > 100 | 3.57 | 13.8 | 2.95 | 12.6 | 3.27 | 32 | 2.32 | 6.77
CCCCNC(=O)CC1=C(C)/C(=C/c2[nH]c(-c3ccc[nH]3)cc2OC)N=C1C | 1.48 | 8.04 | 1.93 | 9 | 2.75 | 9.31 | 2.76 | 8.96 | 1.95 | 4.43 | 4.09 | 30.1 | 4 | 16.6 | 2.83 | 8.8 | 2.36 | 14.5 | 2.26 | 4.54
O=C(CC(O)(C(F)(F)F)C(F)(F)F)c1cccs1 | – | > 10 | – | > 10 | – | > 10 | – | > 10 | – | > 10 | – | > 10 | – | > 10 | – | > 10 | – | > 10 | – | > 10
N#Cc1ncc(-c2ccc(C(F)(F)F)cc2)c(NC2CCCCCC2)n1 | 6.56 | > 100 | 7.42 | > 100 | > 100 | > 100 | > 100 | > 100 | 4.99 | > 100 | 15.3 | > 100 | 44.8 | > 100 | 91 | > 100 | 5.67 | > 100 | 13.7 | > 100
COc1ccc(-c2cc(-c3ccc(Cl)cc3)nc(SCCCC(=O)NO)n2)cc1OC | 0.788 | 4.29 | 0.855 | 12.5 | 1.28 | 3 | 1.54 | 4.58 | 0.946 | 7.44 | 1.57 | 4.43 | 0.811 | 4.73 | 0.537 | 8.28 | 0.944 | 3.03 | 1.81 | 4.89
Cc1c(Br)c(Br)c2c3c1nc(N1CCNCC1)n3CCC2 | 1.36 | 2.74 | – | – | 1.64 | 3.09 | 3.59 | 13.1 | – | – | 1.56 | 3.01 | 1.67 | 3.05 | 1.56 | 3.12 | 1.04 | 2.25 | 2.13 | 4.2
Cn1ccc(S(=O)(=O)N2CCC[C@H](Nc3nccc(-c4c(-c5cccc(O)c5)nc5occn45)n3)C2)n1 | 6.23 | > 66.6 | 17.4 | 63.7 | 17 | 59.2 | 5.71 | 49.6 | 14.9 | 46.4 | 46.4 | > 100 | 16.6 | > 100 | 14.3 | 60.2 | 19.4 | > 100 | 0.224 | 90.7
CN(C)Cc1ccc(O)c(CN(C)C)n1 | – | > 100 | – | > 100 | – | > 100 | – | > 100 | – | > 100 | – | > 100 | – | > 100 | – | > 100 | – | > 100 | – | > 100
CC1(C)CCC2(C(=O)O)C(O)CC3(C)C(=CCC4C5(C)CCC(OC6OCC(O)C(O)C6OC6OCC(O)C(O)C6OC6OCC(O)C(OC7OC(CO)C(O)C(O)C7O)C6O)C(C)(C)C5CCC43C)C2C1 (stereo unspecified) | – | > 100 | – | – | – | > 100 | – | 40.2 | – | – | – | 43.6 | – | > 100 | – | > 100 | – | > 100 | – | > 100
CCOC(=O)C(Cc1ccccc1)n1c(O)c(/C=N/c2ncc(Cc3ccc(Cl)cc3Cl)s2)sc1=S (stereo unspecified) | 3.88 | 21.4 | 3.29 | > 100 | 2.58 | 6.95 | 2.38 | 11.8 | 2.12 | > 100 | 5.05 | > 100 | 3.9 | > 100 | – | – | 2.08 | > 100 | 2.72 | 8.57
CCN1CCCCCCCCCC(=N/O)/C(=N\O)C1 | – | > 100 | – | > 100 | – | > 100 | – | – | – | – | – | > 100 | – | > 100 | – | > 100 | – | > 100 | – | > 100
Cc1[nH]c(N)nc(=S)c1CCCNc1ccccc1 | – | > 100 | – | 21.1 | – | > 100 | – | > 100 | – | > 100 | – | > 100 | – | > 100 | – | > 100 | – | > 100 | – | > 100
COC(=O)C1C(=O)C(C(=O)OC)C2CCC1N2C (stereo unspecified) | – | > 100 | – | > 57.9 | – | > 100 | – | > 100 | – | > 100 | – | > 100 | – | > 100 | – | > 100 | – | > 100 | – | > 100
c1ccc(C2=Nc3ccccc3N3CNN=C23)cc1 | 40.7 | > 100 | 24.2 | > 100 | – | – | > 100 | > 100 | 31.6 | > 100 | > 100 | > 100 | 81.9 | > 100 | 79.4 | > 100 | > 100 | > 100 | > 100 | > 100
COC(=O)COc1ccccc1/C=C1/N=C(c2ccccc2)N(c2c(C)n(C)n(-c3ccccc3)c2=O)C1=O | > 100 | > 100 | > 100 | > 100 | > 100 | > 100 | > 100 | > 100 | 28.9 | > 100 | > 100 | > 100 | > 100 | > 100 | > 100 | > 100 | > 100 | > 100 | – | –
